Laboratory results as given in US4487932A, “2,6-Dimethyl-3,5-bis-(1-adamantylhydr oxycarbonyl)-4-(2-difluoromethoxyphenyl)-1,4-dihydropyridine” (Institut Organicheskogo Sinteza Akademii Nauk Latviiskoi, priority 1983, dated 1984).
Entries after “also recorded” stand apart in the source; their conditions may differ. Like-named read-outs stand apart in the source and are kept apart here.

Tests used:
[1] = system: white mice; test: in vivo
Description: (§1) The studies of acute toxicity established the present compound to be low-toxic.
(§2) Acute toxicity of investigated compounds for
(§3) white mice upon intraperitoneal administration

[2] = system: myocardial ischemia (partial occlusion of the coronary artery); test: rise of ST segment (epicardiac ECG) in partial occlusion of the coronary artery with superposition of a high artificial rhythm; assay type: in vivo, cats and dogs
[3] = system: systolic arterial pressure; settings: for lowering of the systolic arterial pressure: 1 hour after peroral administration; for lowering of the systolic arterial pressure / lowering of the arterial pressure: present compound 10 mg/kg; for lowering of the arterial pressure: in 5 hours after peroral administration
[4] = system: coronary circulation / cardiovascular system; settings: for Duration: increase of coronary blood flow
Description: The action of 2,6-dimethyl-3,5-bis-(1-adamantylhydroxycarbonyl)-4-(2-difluoromethoxyphenyl)-1,4-dihydropyridine on the cardiovascular system was investigated in experiments with cats, rats, and mice.

[5] = system: venous blood outflowing from the coronary sinus of the heart; test: content of oxygen in venous blood outflowing from the coronary sinus; minute volume of the heart; assay type: in vivo, cats; settings: 0.2 to 3 mg/kg
[6] = system: myocardial ischemia (complete occlusion of the coronary artery); test: ischemic change in the heart in complete occlusion of the coronary artery; assay type: in vivo, dogs
[7] = system: arterial pressure; test: arterial pressure in rats of the line SHR, daily peroral administration during 10 days; assay type: in vivo
Description: The application of the present compound with daily peroral administration to rats of the line SHR in the dose of 20 mg/kg during 10 days causes lowering of the arterial pressure by 30-60 mm Hg during 24 hours. […] After the administration of the present compound was discontinued, the systolic arterial pressure gradually rose and reached the control group value in 3 days.

[8] = system: arrhythmia and cardiac arrest caused by calcium chloride; test: calcium chloride model of arrhythmia in white mice; assay type: in vivo
[9] = system: aconitic arrhythmia; test: aconitic model of arrhythmia in albino rats; assay type: in vivo; settings: peroral and intravenous administration
[10] = system: arrhythmia caused by barium chloride; test: barium chloride arrhythmia in rabbits; assay type: in vivo
[11] = in vivo; settings: mouse, in vivo, ip
Description: as §1, §2, §3

[12] = solubility; assay type: physicochemical; settings: ethyl alcohol, chloroform, and other organic solvents and oils
[13] = stability in storage; assay type: physicochemical; settings: conventional conditions
[14] = white mice, intraperitoneal, present compound = 1
[15] = narcotized cats, dose 0.05 mg/kg
[16] = narcotized cats, dose 0.50 mg/kg
[17] = narcotized cats, dose 2.00 mg/kg
[18] = preliminary peroral, 2 to 10 mg/kg, barium chloride 4 mg/kg intravenously

C=C[C@H]1C[N@@]2CC[C@H]1C[C@@H]2[C@@H](O)c1ccnc2ccc(OC)cc12 [Quinidine, reference compound]
Relative toxicity [1, 14]: 53.8

COC(=O)C1=C(C)NC(C)=C(C(=O)OC)C1c1ccccc1[N+](=O)[O-] [Niphedipine, 2,6-dimethyl-4-o-nitrophenyl-3,5-dimethoxycarbonyl-1,4-dihydropyridine, reference compound]
prevention of the rise of the ST segment ([2]; intravenous, 0.01 to 0.05 mg/kg, partial occlusion + high artificial rhythm): only in an insignificant prevention of the rise of the ST segment
lowering of the systolic arterial pressure [3]: 51.7 mm Hg
lowering of the arterial pressure [3]: 14 mm Hg

COc1ccc(Cc2nccc3cc(OC)c(OC)cc23)cc1OC [Papaverine, reference compound]
Relative toxicity [1, 14]: 92.3

CC1=C(C(=O)OC23CC4CC(CC(C4)C2)C3)C(c2ccccc2OC(F)F)C(C(=O)OC23CC4CC(CC(C4)C2)C3)=C(C)N1 (stereo not shown) [Present compound, 2,6-dimethyl-3,5-bis-(1-adamantylhydroxycarbonyl)-4-(2-difluoromethoxyphenyl)-1,4-dihydropyridine]
effect on arterial pressure, systemic venous pressure and aortal blood flow ([4]; 0.005 to 3 mg/kg): does not cause sharp drop of the arterial pressure, noticeable increase of the systemic venous pressure, or diminution of the aortal blood flow
undesirable effects (sharp drop of arterial pressure, diminishing of arterial/aortal blood flow, increase of systemic venous pressure) ([4]; 0.05 to 3 mg/kg): causing no undesirable effects; also recorded: without causing such undesirable effects as sharp drop of the arterial pressure or pronounced diminishing of the aortal blood flow
duration of action compared with niphedipine ([4]; equiactive doses): twice as durative
rising of the systemic venous pressure ([4]; large doses, intravenous administration): does not bring about rising of the systemic venous pressure
coronarodilating action ([4]; narcotized cats): pronounced coronarodilating action
coronarodilating activity compared with niphedipine ([4]; narcotized cats): somewhat inferior to niphedipine in activity
Change of aortal blood flow [4, 15]: +5%
Increase of space velocity of coronary blood flow [4, 15]: 10%
Lowering of arterial pressure [4, 15]: 0%
Duration [4, 15]: 25 min
Change of aortal blood flow [4, 16]: +12%
Change of systemic venous pressure [4, 16]: -10%
Increase of space velocity of coronary blood flow [4, 16]: 60%
Lowering of arterial pressure [4, 16]: 5%
Duration [4, 16]: 50 min
Change of aortal blood flow [4, 17]: +20%
Change of systemic venous pressure [4, 17]: +8%
Increase of space velocity of coronary blood flow [4, 17]: 120%
Lowering of arterial pressure [4, 17]: 20%
Duration [4, 17]: 90 min
minute volume of the heart [5]: somewhat increases
content of oxygen in venous blood outflowing from the coronary sinus ([5]; cats): increases the content of oxygen in venous blood; also recorded: increases the content of oxygen in the venous blood
effectiveness by ECG data (epicardium lead) compared with niphedipine and nitroglycerine ([2]; experiments with cats and dogs): more effective than niphedipine and nitroglycerine
effect compared with nitroglycerine ([2]; intravenous 0.3 to 2 mg/kg vs nitroglycerine 0.05 mg/kg): almost two times more durative and more pronounced than of nitroglycerine
rise of the ST segment on epicardiac leads of the ECG ([2]; preliminary intravenous, 0.3 to 2 mg/kg, partial occlusion + high artificial rhythm): considerably diminishes, and in some cases even completely precludes a rise of the ST segment
myocardial ischemia ([6]; complete occlusion and also partial occlusion with high artificial rhythm, cats and dogs): diminishes myocardial ischemia
ischemic change in the heart ([6]; dogs, preliminary administration, 0.5 to 2 mg/kg, complete occlusion): considerably diminished the ischemic change in the heart
time for systolic arterial pressure to reach the control group value after discontinuation ([7]; after daily peroral 20 mg/kg during 10 days): 3 days
pulse frequency ([7]; daily peroral 20 mg/kg during 10 days): No increase of the pulse frequency was observed
lowering of the arterial pressure ([7]; daily peroral 20 mg/kg during 10 days, during 24 hours): 30-60 mm Hg
antiarrhythmic activity compared with novocainamide (procainamide) and quinidine ([8]; calcium model of arrhythmia): in smaller doses, and in a more pronounced manner; also recorded: exceeds that of novocainamide (procainamide) and quinidine
prevention of arrhythmia and cardiac arrest ([8]; peroral, 1 to 5 mg/kg, calcium chloride intravenous): prevents the appearance of arrhythmia and cardiac arrest
prophylactic and therapeutic activity on aconitic arrhythmia [9]: considerable prophylactic and therapeutic activity; also recorded: prophylactic and therapeutic effect
prophylactic and therapeutic effect on barium arrhythmia [10]: prophylactic and therapeutic effect
alleviation of arrhythmia [10, 18]: considerably alleviates arrhythmia
shortening of arrhythmia [10, 18]: 2-5 times
LD50 [11]: 8400 mg/kg
Relative toxicity ([1]; mouse, in vivo, ip): 1
LD50 ([1]; white mice, intraperitoneal): 8400(6885.2-10248) mg/kg
toxicity relative to niphedipine ([1]; white mice, intraperitoneal): 1/44
toxicity relative to quinidine ([1]; white mice, intraperitoneal): 1/53
solubility [12]: readily soluble in ethyl alcohol, chloroform, and other organic solvents and oils
stability in storage [13]: stable when stored under conventional conditions
lowering of the systolic arterial pressure [3]: 31.5 mm Hg
lowering of the arterial pressure [3]: 8.6 mm Hg
lowering of arterial pressure compared with niphedipine ([3]; peroral 10 mg/kg): less pronounced than the action of niphedipine

CCN(CC)CCNC(=O)c1ccc(N)cc1 [Novocainamide (procainamide), reference compound]
Relative toxicity ([1]; mouse, in vivo, ip): 28.9
